In US20250018049A1, “COMPOUNDS FOR DEGRADING CYCLIN-DEPENDENT KINASE 2 VIA UBIQUITIN PROTEOSOME PATHWAY” (NIKANG THERAPEUTICS, INC., priority 2020, published 2025) one finds IC50 data, which are given here for 14 compounds.

Experiment [1] has as its target T1, CDK2 (Homo sapiens, UniProt P24941). Kind of experiment: NanoBRET CDK2 engagement assay. In kind it is cell-based. Set-up: expressed in transfected cells. As to conditions: OVCAR3 cells with stable CDK2-Luciferase vector, 24 hours treatment. The protocol:
OVCAR3 cells with stable transfection of CDK2-Luciferase vector were seeded into 96-well plate at a density of 20,000 cells per well, 50 μL Opti-MEM medium supplemented with 1% FBS. Following morning, cells were treated with compounds of the disclosure, with starting concentration at 3 μM and ½ log dilution down to 0.3 nM for 24 hours at 37° C. DMSO treatment serves as control. Compound engagement was then measured using NanoBRE™ Kinase Kit from Promega (Part Number: CS1810C122, NanoBRET™ TE Kinase Kit #10, 1K) following manufacturer's instruction. For 24 hours treatment, tracer was added only for the last 2 hours. Briefly, 2.5 μL of complete 20× NanoBRET Tracer was added to the cells in suspension. Immediately prior to BRET measurements, prepare 3× Complete NanoBRET® Nano-Glo® Substrate in Opti-MEM without serum and phenol red. Without any delay, 25 μL per well of 3× Complete NanoBRET™ Nano-Glo® Substrate for a 96-well plate was added and mixed well. Signal was then read on a CLARIOstar® plate reader (measure donor emission (e.g., 450 nm) and acceptor emission (e.g., 610 nm or 630 nm) using a NanoBRET™-compatible luminometer. Target engagement was calculated with DMSO treatment as 100% signal, and IC50 was calculated by GraphPad Prism 9.

Experiment [2] has as its target T1, CDK2. In words: Phospho-Rb HTRF measurement in OVCAR3 cells (inhibition of CDK2). Set-up: High-Throughput Measurement of Cellular Endogenous CDK2; endogenous in cells; host or cells: OVCAR3. Conditions: pRB(S807/811) assay, 24 h compound treatment. In kind it is cell-based. The protocol:
Phosphorylation of RB protein at S780 and S807/811 were measured using HTRF phospho-RB cellular kits (Cat #64RBS780PEG and 64RBS807PEG) from Cisbio.
On Day 1, OVCAR3 or KYSE520 cells were seeded into 96-well tissue-culture treated plates at 20,000 cells/well in 200 μL and incubated overnight at 37° C. in CO2 atmosphere. On Day 2, the cells were treated with test compounds at concentrations from 0.3 to 10,000 nM using HP D300 digital dispenser. Twenty-four hours after compound treatment, cell culture media was removed by flicking the plate and tapping the plate against clean paper towel. Immediately 30 μL 1× lysis buffer was supplemented from the kit and the plate was incubated at room temperature on shaker for 30 min. After homogenization by pipetting up and down, 8 μL cell lysate from 96-well cell culture plate was transferred to 384-well small volume white detection plate. 2 μL premixed detection solution was added and the plate was covered with sealer. To prepare the detection solution, d2 conjugated-phospho-RB antibody and Eu-cryptate conjugated phosphor-RB antibody were diluted into detection buffer following manufacturer's instruction. Detection plates were incubated for 4 h at room temperature and read on ClarioStar (BMG Labtech) in TR-FRET mode (665 nM and 620 nM). The TR-FRET ratio (665 nM/620 nM) was plotted against the compound concentration and normalized to DMSO controls. Half maximal inhibition concentration (IC50) values are calculated with a four-parameter logistic fit using GraphPad Prism (version 8; La Jolla, CA).

As to `O=C1CCC(N2Cc3cc(CN4CC(Oc5cccc(S(=O)(=O)N6CCC(Nc7ncc8ccc(=O)n(C9CCCC9)c8n7)CC6)c5)C4)ccc3C2=O)C(=O)N1` (centres unmarked) [Compound 67, 3-(5-((3-(3-((4-((8-cyclopentyl-7-oxo-7,8-dihydro-pyrido[2,3-d]pyrimidin-2-yl)amino)piperidin-1-yl)sulfonyl)phenoxy)azetidin-1-yl)methyl)-1-oxoisoindolin-2-yl)piperidine-2,6-dione], the values for the IC50 against CDK2 [1] and against CDK2 [2] were 150 nM and 27 nM, respectively.

For `CN(C1CCN(Cc2cccc3c2n(C)c(=O)n3C2CCC(=O)NC2=O)CC1)S(=O)(=O)N1CCC(Nc2ncc3ccc(=O)n(C4CCCC4)c3n2)CC1` (centres unmarked) [Compound 20, 4-((8-cyclopentyl-7-oxo-7,8-dihydropyrido[2,3-d]pyrimidin-2-yl)amino)-N-(1-((1-(2,6-dioxo-piperidin-3-yl)-3-methyl-2-oxo-2,3-dihydro-1H-benzo[d]imidazol-4-yl)methyl)piperidin-4-yl)-N-methylpiperidine-1-sulfonamide], the half-maximal inhibitory concentration (IC50) on CDK2 [1] was found to be 127 nM; against CDK2 [2] it was 1170 nM.

Regarding `N#Cc1cc2cnc(NC3CCN(S(=O)(=O)c4cccc(CN5CCN(c6cc7c(cc6F)C(=O)N(C6CCC(=O)NC6=O)C7=O)CC5)c4)CC3)nc2n(C2CCCC2)c1=O` (centres unmarked) [Compound 46, 8-cyclopentyl-2-((1-((3-((4-(2-(2,6-dioxopiperidin-3-yl)-6-fluoro-1,3-dioxoisoindolin-5-yl)piperazin-1-yl)methyl)phenyl)sulfonyl)piperidin-4-yl)-amino)-7-oxo-7,8-dihydropyrido[2,3-d]-pyrimidine-6-carbonitrile], the IC50 on CDK2 [1] came out at 2160 nM; at CDK2 [2] it was 2920 nM.

Consider `CN1C(=O)CCC(N2C(=O)c3cccc(OCC(=O)NCCOCCN4CCN(S(=O)(=O)N5CCC(Nc6ncc7ccc(=O)n(C8CCCC8)c7n6)CC5)CC4)c3C2=O)C1=O` (centres unmarked) [compound 5, N-(2-(2-(4-((4-((8-cyclopentyl-7-oxo-7,8-dihydropyrido[2,3-d]pyrimidin-2-yl)amino)-piperidin-1-yl)sulfonyl)piperazin-1-yl)-ethoxy)ethyl)-2-((2-(1-methyl-2,6-dioxo-piperidin-3-yl)-1,3-dioxoisoindolin-4-yl)oxy)acetamide], for which the IC50 against CDK2 [1] was 4110 nM; on CDK2 [2], 5860 nM.

For the compound `O=C1CCC(N2C(=O)c3cccc(NCCOCCOCCNS(=O)(=O)N4CCC(Nc5ncc6ccc(=O)n(C7CCCC7)c6n5)CC4)c3C2=O)C(=O)N1` (centres unmarked) [Compound 9, 4-((8-cyclopentyl-7-oxo-7,8-dihydropyrido[2,3-d]-pyrimidin-2-yl)amino)-N-(2-(2-(2-((2-(2,6-dioxopiperidin-3-yl)-1,3-dioxoisoindolin-4-yl)-amino)ethoxy)ethoxy)ethyl)piperidine-1-sulfonamide], the IC50 at CDK2 [1] worked out at 675 nM; against CDK2 [2], 1810 nM.

For `O=C(COc1cccc2c1C(=O)N(C1CCC(=O)NC1=O)C2=O)NCCOCCOCCN1CCN(S(=O)(=O)N2CCC(Nc3ncc4ccc(=O)n(C5CCCC5)c4n3)CC2)CC1` (centres unmarked) [compound 2, N-(2-(2-(2-(4-((4-((8-cyclopentyl-7-oxo-7,8-dihydropyrido[2,3-d]pyrimidin-2-yl)amino)-piperidin-1-yl)sulfonyl)piperazin-1-yl)-ethoxy)ethoxy)ethyl)-2-((2-(2,6-dioxo-piperidin-3-yl)-1,3-dioxoisoindolin-4-yl)-oxy)acetamide], the IC50 on CDK2 [1] turned out to be 1310 nM; against CDK2 [2] it was 1280 nM.

As to `Cn1c(=O)n(C2CCC(=O)NC2=O)c2cccc(C3CCN(C4CC5(C4)CN(S(=O)(=O)N4CCC(Nc6ncc7ccc(=O)n(C8CCCC8)c7n6)CC4)C5)CC3)c21` (centres unmarked) [Compound 32, 3-(4-(1-(2-((4-((8-cyclopentyl-7-oxo-7,8-dihydro-pyrido[2,3-d]pyrimidin-2-yl)amino)piperidin-1-yl)sulfonyl)-2-azaspiro[3.3]heptan-6-yl)piperidin-4-yl)-3-methyl-2-oxo-2,3-dihydro-1H-benzo[d]imidazol-1-yl)piperidine-2,6-dione], the IC50 at CDK2 [1] came out at 59 nM; at CDK2 [2], 317 nM.

Regarding `O=C1CCC(N2Cc3c(OCCN4CC(Oc5cccc(S(=O)(=O)N6CCC(Nc7ncc8ccc(=O)n(C9CCCC9)c8n7)CC6)c5)C4)cccc3C2=O)C(=O)N1` (centres unmarked) [Compound 27, 3-(4-(2-(3-(3-((4-((8-cyclopentyl-7-oxo-7,8-dihydropyrido[2,3-d]pyrimidin-2-yl)amino)-piperidin-1-yl)sulfonyl)phenoxy)azetidin-1-yl)-ethoxy)-1-oxoisoindolin-2-yl)piperidine-2,6-dione], the values for the concentration for half-maximal inhibition (IC50) against CDK2 [1] and on CDK2 [2] were 334 nM and 882 nM, respectively.

On to `O=C(COc1cccc2c1C(=O)N(C1CCC(=O)NC1=O)C2=O)NCCOCCOCCOCCOCCN1CCN(S(=O)(=O)N2CCC(Nc3ncc4ccc(=O)n(C5CCCC5)c4n3)CC2)CC1` (centres unmarked) [compound 6, N-(14-(4-((4-((8-cyclopentyl-7-oxo-7,8-dihydro-pyrido[2,3-d]pyrimidin-2-yl)amino)-piperidin-1-yl)sulfonyl)piperazin-1-yl)-3,6,9,12-tetraoxatetradecyl)-2-((2-(2,6-dioxopiperidin-3-yl)-1,3-dioxoisoindolin-4-yl)oxy)acetamide], for which the IC50 stood at 1670 nM against CDK2 [1] and 2250 nM against CDK2 [2].

On CDK2 [2], `O=C1CCC(N2C(=O)c3cccc(NC(=O)COCCOCCOCCOCCNS(=O)(=O)N4CCC(Nc5ncc6ccc(=O)n(C7CCCC7)c6n5)CC4)c3C2=O)C(=O)N1` (centres unmarked) [Compound 26, 14-((4-((8-cyclopentyl-7-oxo-7,8-dihydro-pyrido[2,3-d]pyrimidin-2-yl)amino)piperidine)-1-sulfonamido)-N-(2-(2,6-dioxopiperidin-3-yl)-1,3-dioxoisoindolin-4-yl)-3,6,9,12-tetraoxatetradecan-amide] came in with an IC50 of 6090 nM.

For the compound `O=C1CCC(N2Cc3cc(N4CC(Oc5cccc(S(=O)(=O)N6CCC(Nc7ncc8ccc(=O)n(C9CCCC9)c8n7)CC6)c5)C4)ccc3C2=O)C(=O)N1` (centres unmarked) [Compound 74, 3-(5-(3-(3-((4-((8-cyclopentyl-7-oxo-7,8-dihydro-pyrido[2,3-d]pyrimidin-2-yl)amino)piperidin-1-yl)sulfonyl)phenoxy)azetidin-1-yl)-1-oxoisoindolin-2-yl)piperidine-2,6-dione], the IC50 on CDK2 [2] was determined as 100 nM.

In the case of `O=C1CCC(N2Cc3cc(N4CCC(Oc5cccc(S(=O)(=O)N6CCC(Nc7ncc8ccc(=O)n(C9CCCC9)c8n7)CC6)c5)CC4)ccc3C2=O)C(=O)N1` (centres unmarked) [Compound 33, 3-(5-(4-(3-((4-((8-cyclopentyl-7-oxo-7,8-dihydro-pyrido[2,3-d]pyrimidin-2-yl)amino)piperidin-1-yl)sulfonyl)phenoxy)piperidin-1-yl)-1-oxoiso-indolin-2-yl)piperidine-2,6-dione], the IC50 against CDK2 [2] was 313 nM. This IC50 is about 3.1-fold higher than that of the compound before.

On CDK2 [2], `O=C1CCC(N2C(=O)c3cccc(NCCOCCOCCOCCNCCCS(=O)(=O)N4CCC(Nc5ncc6ccc(=O)n(C7CCCC7)c6n5)CC4)c3C2=O)C(=O)N1` (centres unmarked) [Compound 25, 4-((15-((4-((8-cyclopentyl-7-oxo-7,8-dihydro-pyrido[2,3-d]pyrimidin-2-yl)amino)piperidin-1-yl)sulfonyl)-3,6,9-trioxa-12-azapentadecyl)-amino)-2-(2,6-dioxopiperidin-3-yl)isoindoline-1,3-dione] had an IC50 of 1070 nM.

Turning to `CC1(O)CCCC1n1c(=O)ccc2cnc(NC3CCN(S(=O)(=O)c4cccc(CN5CCN(c6cc7c(cc6F)C(=O)N(C6CCC(=O)NC6=O)C7=O)CC5)c4)CC3)nc21` (centres unmarked) [Compound 44, 2-(2,6-dioxopiperidin-3-yl)-5-fluoro-6-(4-(3-((4-((8-(2-hydroxy-2-methylcyclopentyl)-7-oxo-7,8-dihydropyrido[2,3-d]pyrimidin-2-yl)amino)-piperidin-1-yl)sulfonyl)benzyl)piperazin-1-yl)-isoindoline-1,3-dione], on CDK2 [2], the IC50 was 405 nM.
